Laboratory results as given in patent US20040254224A1, “Medicaments” (priority 2001, published 2004).

Target: HM74 (Homo sapiens, UniProt P49019)
Conditions: membranes from HM74-expressing HEK293T cells, co-expressed with Go1α
Method: HEK293T cells (HEK293 cells stably expressing the SV40 large T-antigen) were maintained in DMEM containing 10% (v/v) foetal calf serum and 2 mM glutamine. Cells were seeded in 60 mm culture dishes and grown to 60-80% confluency (18-24 h) prior to transfection with pCDNA3 containing the relevant DNA species using Lipofectamine reagent. For transfection, 3 μg of DNA was mixed with 10 μl of Lipofectamine in 0.2 ml of Opti-MEM (Life Technologies Inc.) and was incubated at room temperature for 30 min prior to the addition of 1.6 ml of Opti-MEM. Cells were exposed to the Lipofectamine/DNA mixture for 5 h and 2 ml of 20% (v/v) newborn calf serum in DMEM was then added. Cells were harvested 48-72 h after transfection.
Plasma membrane-containing P2 particulate fractions were prepared from cell pastes frozen at −80° C. after harvest. All procedures were carried out at 4° C. Cell pellets were resuspended in 1 ml of 10 mM Tris-HCl and 0.1 mM EDTA, pH 7.5 (buffer A) and by homogenisation for 20 s with a polytron homogeniser followed by passage (5 times) through a 25-guage needle. Cell lysates were centrifuged at 1,000 g for 10 min in a microcentrige to pellet the nuclei and unbroken cells and P2 particulate fractions were recovered by microcentrifugation at 16,000 g for 30 min. P2 particulate fractions were resuspended in buffer A and stored at −80° C. until required.

HM74, sequence (P49019 whole entry): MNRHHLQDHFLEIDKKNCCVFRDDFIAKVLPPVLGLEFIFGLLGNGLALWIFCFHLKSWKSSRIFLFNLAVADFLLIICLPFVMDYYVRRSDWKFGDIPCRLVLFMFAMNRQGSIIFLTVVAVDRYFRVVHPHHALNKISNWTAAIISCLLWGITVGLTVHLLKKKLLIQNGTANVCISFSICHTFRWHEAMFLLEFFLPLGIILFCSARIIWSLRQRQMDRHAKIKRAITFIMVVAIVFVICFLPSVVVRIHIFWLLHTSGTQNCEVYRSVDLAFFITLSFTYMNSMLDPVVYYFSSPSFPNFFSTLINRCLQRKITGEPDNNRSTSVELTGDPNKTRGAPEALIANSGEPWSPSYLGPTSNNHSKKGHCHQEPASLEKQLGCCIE

Q: Which “stimulation of [35S]GTPγS binding” value does the source give for `O=C(O)CNC(=O)c1cccnc1` [nicotinuric acid] here?
A: not found to alter basal
